Source: patent US20240352415A1, “METHODS FOR THE GENERATION OF HUMAN RETINAL GANGLION CELLS AND COMPOSITIONS, ASSAYS, DEVICES, AND KITS COMPRISING SAME” (priority 2021, published 2024)
“Also recorded” adds a separate entry of the source.

Experiments:
[1] = tested on: CONCEPT telencephalon-eye organoids; experiment: Inhibition of FGF signaling in CONCEPT telencephalon-eye organoids with FGFR and MEK inhibitors (immunostaining readout); assay type: cell-based, human; conditions: inhibitor in culture medium starting on day 15, harvested day 24; PD 161570 1 μM, PD 0325901 2 μM; DMSO control
Procedure: CONCEPT telencephalon-eye organoids were generated as follows. A humidified incubator at 37° C. with 5% C02 was used for cell culture. H1 hESCs or iPSCs that were passaged using ReLeSR two or three days before experiments were detached using Dispase (GIBCO 17105041) and then harvested by centrifugation. After that, the cell pellets were suspended in ice-cold Matrigel. After gelling at 37° C. for 15-20 minutes, the hESC/Matrigel clump was gently dispersed in a N2B27 Medium (DMEM/F12+GlutaMAX (GIBCO):Neurobasal medium (GIBCO)=1:1, 0.5×B27 supplement (GIBCO), 0.5×N2 supplement (GIBCO), 0.1 mM β-mercaptoethanol, and 0.2 mM L-GlutaMax) for floating culture. With the starting day of cell differentiation designated as day 0, cysts with a single lumen formed on day 1. On days 3-5, individual cysts were manually picked using a curved Pasteur pipets under an inverted microscope and then seeded onto Matrigel-coated 24-well plates at a density of 2-6 cysts per well. Cysts spontaneously attached to the culture surface and grew. […] Culture mediums were changed every two or three days. To inactivate FGF signaling in CONCEPT organoids, FGFR1/2/3 inhibitor PD 161570 (1 μM; Tocris) and MEK1/2 inhibitor PD 0325901 (2 μM; Tocris) were supplemented to the culture medium staring on day 15. DMSO was used as a control. Treated CONCEPT organoids were harvested on day 24. CONCEPT telencephalon-eye organoids were fixed in 4% PFA for 15-30 minutes at room temperature and processed for immunostaining. These primary antibodies were used: […] Primary antibodies were visualized using Alexa Fluor 488-, 568-, and 647-conjugated secondary antibodies and imaged using a Zeiss AxioObserver Z1 microscope. […] In dual-color immunohistochemistry for PAX2 and FGF8, FGF8 was visualized using AP-conjugated anti mouse secondary antibody (Invitrogen A16038), and PAX2 was detected by biotin-conjugated anti rabbit secondary antibody (Invitrogen B2770) followed by […]-conjugated streptavidin (ThermoScientific 21130).

[2] = tested on: voltage-gated potassium channels
[3] = tested on: voltage-gated sodium channels; assay type: cell-based, human

| Compound | RGC somas and directional axon growth marked by CNTN2 expression [1] | optic disc cells marked by moderate-level PAX2 expression at the outer regions [1] | optic stalk cells marked by high-level PAX2 expression at the inner zone [1] | retinal (neuroretinal) progenitors marked by VSX2 expression [1] | effect on amplitude of outward currents [2] | mean IK±SD at 60 mV (outward potassium current amplitude) [2] [pA] | effect on inward currents [3] | mean INa+SD at −10 mV (inward sodium current amplitude) [3] [pA] |
| --- | --- | --- | --- | --- | --- | --- | --- | --- |
| CCN(CC)CCCCNc1ncc2cc(-c3c(Cl)cccc3Cl)c(NC(=O)NC(C)(C)C)nc2n1 [PD 161570] | drastically reduced or nearly absent | severely reduced | reduced | reduced | – | – | – | – |
| O=C(NOC[C@H](O)CO)c1ccc(F)c(F)c1Nc1ccc(I)cc1F [PD 0325901] | substantially reduced or nearly absent; also recorded: drastically reduced | nearly absent | largely remained | largely remained | – | – | – | – |
| CC[N+](CC)(CC)CC.[Cl-] [TEA, Tetraethylammonium-chloride] | – | – | – | – | significantly reduced | 279±201 | – | – |
| NC1=N[C@H](O)[C@H]2[C@H]3O[C@]4(O)O[C@@H]([C@@H](O)[C@@]2(N1)[C@@H]4O)[C@]3(O)CO [TTX, Tetrodotoxin-citrate] | – | – | – | – | – | – | abolished all inward currents | −18.3±13 |
